For test [1], the target named is T1, hMAO‐A (Homo sapiens, UniProt P21397).
T1 construct: purchased Sigma Aldrich M7316
T1 sequence (P21397 1-527): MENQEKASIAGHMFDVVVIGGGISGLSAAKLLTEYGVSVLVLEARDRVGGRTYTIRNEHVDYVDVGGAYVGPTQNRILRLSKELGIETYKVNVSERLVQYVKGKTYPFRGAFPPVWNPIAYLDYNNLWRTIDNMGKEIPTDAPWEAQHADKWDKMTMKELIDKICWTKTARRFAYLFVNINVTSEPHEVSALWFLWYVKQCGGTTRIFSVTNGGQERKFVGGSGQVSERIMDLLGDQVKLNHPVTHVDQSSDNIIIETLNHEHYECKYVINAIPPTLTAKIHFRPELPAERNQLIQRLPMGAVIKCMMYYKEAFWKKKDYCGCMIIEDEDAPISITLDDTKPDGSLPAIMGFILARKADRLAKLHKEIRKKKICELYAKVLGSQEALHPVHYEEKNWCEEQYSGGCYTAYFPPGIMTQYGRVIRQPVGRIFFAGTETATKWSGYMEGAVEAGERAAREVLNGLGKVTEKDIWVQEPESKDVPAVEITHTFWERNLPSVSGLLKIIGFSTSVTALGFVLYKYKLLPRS
Briefly: In vitro fluorometric MAO-A inhibition assay (tyramine substrate, horseradish peroxidase coupling). In kind it is biochemical. As for the experimental part:
(§1) The in vitro fluorometric technique was used to assess each newly generated substance's inhibitory activity against hMAO‐A and hMAO‐B. In a horseradish peroxidase coupling reaction, the oxired reagent (10‐acetyl‐3,7‐dihydroxyphenoxazine) detects H2O2, a result of the oxidative deamination of tyramine, which is utilized as an MAO substrate. The test was carried out in two steps. First, each compound's concentrations of 10^–3 and 10^–4 M were investigated. […] These parameters of this study were made as in previous studies. We purchased these two enzymes from Sigma Aldrich (M7316‐Monoamine Oxidase A human and M7441‐ […]).

In test [2] the target is T2, BChE from equine serum (Equus caballus, UniProt P81908).
T2 construct: C7512‐ BChE from equine serum; purchased Sigma Aldrich C7512; host or cells: equine serum
T2 sequence (P81908 whole entry): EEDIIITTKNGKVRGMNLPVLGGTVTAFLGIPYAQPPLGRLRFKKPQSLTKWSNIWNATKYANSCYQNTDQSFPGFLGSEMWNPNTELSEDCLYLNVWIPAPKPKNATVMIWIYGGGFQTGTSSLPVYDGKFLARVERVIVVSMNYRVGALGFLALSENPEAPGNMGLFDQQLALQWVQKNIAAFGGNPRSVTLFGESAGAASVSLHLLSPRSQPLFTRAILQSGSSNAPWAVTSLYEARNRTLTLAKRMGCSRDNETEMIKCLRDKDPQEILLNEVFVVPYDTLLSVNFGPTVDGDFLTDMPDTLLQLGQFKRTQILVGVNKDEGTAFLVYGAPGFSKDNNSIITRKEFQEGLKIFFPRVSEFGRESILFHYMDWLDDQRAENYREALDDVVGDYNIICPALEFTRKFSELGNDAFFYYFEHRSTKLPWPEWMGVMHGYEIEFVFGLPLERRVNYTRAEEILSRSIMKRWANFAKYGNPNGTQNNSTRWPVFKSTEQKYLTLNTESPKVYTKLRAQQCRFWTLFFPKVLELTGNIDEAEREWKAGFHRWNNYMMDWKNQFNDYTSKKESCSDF
Briefly: biochemical. The settings on record: for IC50: BChI substrate, DTNB, 412 nm, Tris/HCl pH 8.0; for Ki: read-out: K i (nM) BChE. As for the experimental part:
(§2) Both […] (AChI) and butyrylcholine iodide (BChI) were used as substrates for the enzymatic hydrolysis reactions, with 5,5′‐dithiobis(2‐nitrobenzoic acid) (DTNB) serving as a common reagent for detecting the activities of AChE and BChE. The assay was conducted: 1 mL of 1.0 M Tris/HCl buffer (pH 8.0) was mixed with 10 μL of the sample solution in deionized water. To this mixture, 50 μL of AChE or BChE enzyme solution was added, and the reaction was incubated at room temperature for 10 min. After incubation, 50 μL of DTNB (0.5 mM) was introduced, followed by the addition of 50 μL of either AChI or BChI (10 mM), initiating the enzymatic reaction. The hydrolysis of the substrates was monitored spectrophotometrically by measuring the absorbance at 412 nm, corresponding to the formation of the yellow‐colored 5‐thio‐2‐nitrobenzoate anion. This color change is due to the reaction of DTNB with thiocholine released during the hydrolysis of AChI or BChI. For every inhibitor that was utilized, IC50 and K i values were determined. In this study, C7512‐ BChE from equine serum and C3389‐ AChE from Electrophorus electricus (electric eel) were purchased from Sigma Aldrich.

Test [3] concerns the target T3, AChE from Electrophorus electricus (electric eel) (Electrophorus electricus, UniProt O42275).
T3 construct: purchased Sigma Aldrich C3389
The experiment in a line: biochemical. The conditions noted are these: for IC50: AChI substrate, DTNB, 412 nm, Tris/HCl pH 8.0; for Ki: read-out: K i (nM) AChE. The method, then:
as §2, with “The hydrolysis of the substrates was monitored spectrophotometrically by measuring the absorbance at 412 nm, corresponding to the formation of the yellow‐colored 5‐thio‐2‐nitrobenzoate anion.” left out

The target of test [4] is T4, hMAO‐B (Homo sapiens, UniProt P27338).
T4 construct: purchased Sigma Aldrich M7441
T4 sequence (P27338 1-520): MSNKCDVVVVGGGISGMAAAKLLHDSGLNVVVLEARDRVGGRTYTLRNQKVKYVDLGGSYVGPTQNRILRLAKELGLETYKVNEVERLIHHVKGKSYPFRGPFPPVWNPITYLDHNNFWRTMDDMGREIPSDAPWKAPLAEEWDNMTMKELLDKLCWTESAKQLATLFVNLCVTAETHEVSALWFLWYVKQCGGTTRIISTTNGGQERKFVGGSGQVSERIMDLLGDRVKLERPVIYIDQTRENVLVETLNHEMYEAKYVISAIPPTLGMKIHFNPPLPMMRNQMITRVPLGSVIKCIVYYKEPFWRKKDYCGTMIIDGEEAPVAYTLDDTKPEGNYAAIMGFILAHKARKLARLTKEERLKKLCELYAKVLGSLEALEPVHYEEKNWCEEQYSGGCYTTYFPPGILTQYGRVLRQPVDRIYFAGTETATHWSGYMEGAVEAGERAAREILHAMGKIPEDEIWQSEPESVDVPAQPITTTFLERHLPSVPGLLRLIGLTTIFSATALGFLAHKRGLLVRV
Briefly: In vitro fluorometric MAO-B inhibition assay (tyramine substrate, horseradish peroxidase coupling). In kind it is biochemical. As for the experimental part: as §1

Among the data in PMC12277872, “Design, Synthesis, In Vitro, and In Silico Studies of 5‐(Diethylamino)‐2‐Formylphenyl Naphthalene‐2‐Sulfonate Based Thiosemicarbazones as Potent Anti‐Alzheimer Agents” (Archiv Der Pharmazie, 2025) are IC50 and Ki values, retold here.

Some results are limits rather than exact numbers.

T3 sequence (O42275 24-633): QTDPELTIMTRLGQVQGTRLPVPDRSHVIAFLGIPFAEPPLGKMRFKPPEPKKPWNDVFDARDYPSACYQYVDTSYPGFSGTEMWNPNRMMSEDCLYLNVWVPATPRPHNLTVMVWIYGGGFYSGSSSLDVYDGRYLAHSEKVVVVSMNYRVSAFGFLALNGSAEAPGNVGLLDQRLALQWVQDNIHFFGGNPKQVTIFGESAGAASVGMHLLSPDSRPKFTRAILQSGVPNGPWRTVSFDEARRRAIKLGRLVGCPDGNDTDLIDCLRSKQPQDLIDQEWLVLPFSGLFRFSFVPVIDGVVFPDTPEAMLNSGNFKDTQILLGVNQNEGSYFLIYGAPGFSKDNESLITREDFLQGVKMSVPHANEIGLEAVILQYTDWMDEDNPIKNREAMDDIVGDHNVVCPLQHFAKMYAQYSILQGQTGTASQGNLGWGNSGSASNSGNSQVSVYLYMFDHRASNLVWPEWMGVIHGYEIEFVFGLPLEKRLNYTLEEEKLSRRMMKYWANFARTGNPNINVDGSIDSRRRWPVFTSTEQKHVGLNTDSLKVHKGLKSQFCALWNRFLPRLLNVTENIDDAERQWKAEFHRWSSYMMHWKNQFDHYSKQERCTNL

As a reminder, the IC50 is the concentration at which inhibition is half-maximal. With `CCN(CC)c1ccc(/C=N/NC(=S)Nc2cccc(Cl)c2Cl)c(OS(=O)(=O)c2ccc3ccccc3c2)c1` [Compound 5a, (E)‐2‐({2‐[(2,3‐Dichlorophenyl)carbamothioyl]hydrazono}methyl)‐5‐(diethylamino)phenyl naphthalene‐2‐sulfonate], the IC50 in test [1] stood at 104 ± 4.58 nM; in test [2] it was 125 ± 9.13 nM; in test [3], 14.9 ± 1.54 nM; in test [4], 391 ± 9.04 nM. Besides, the results for the Ki in test [2] and in test [3] were 101 ± 22.4 nM and 11.4 ± 3.06 nM, respectively.

As for `CCN(CC)c1ccc(/C=N/NC(=S)Nc2ccc(Br)cc2)c(OS(=O)(=O)c2ccc3ccccc3c2)c1` [Compound 5b, (E)‐2‐({2‐[(4‐Bromophenyl)carbamothioyl]hydrazono}methyl)‐5‐(diethylamino)phenyl naphthalene‐2‐sulfonate], the concentration for half-maximal inhibition (IC50) is 132 ± 7.01 nM in test [1], 202 ± 5.66 nM in test [2], 33.8 ± 3.41 nM in test [3] and 410 ± 7.47 nM in test [4]. The Ki in test [2] turned out to be 191 ± 15.7 nM; in test [3] it was 26.6 ± 3.34 nM.

Consider `CCN(CC)c1ccc(/C=N/NC(=S)Nc2ccccc2)c(OS(=O)(=O)c2ccc3ccccc3c2)c1` [Compound 5c, (E)‐5‐(Diethylamino)‐2‐{[2‐(phenylcarbamothioyl)hydrazono]methyl}phenyl naphthalene‐2‐sulfonate], for which the IC50 in test [1] came to 189 ± 6.46 nM; in test [2], 218 ± 8.41 nM; in test [3], 38.4 ± 5.03 nM; in test [4] it was 296 ± 6.01 nM. The Ki stood at 183 ± 15 nM in test [2] and 25.4 ± 5.32 nM in test [3].

Consider `CCN(CC)c1ccc(/C=N/NC(=S)Nc2ccc(OC)cc2)c(OS(=O)(=O)c2ccc3ccccc3c2)c1` [Compound 5d, (E)‐5‐(Diethylamino)‐2‐({2‐[(4‐methoxyphenyl)carbamothioyl]hydrazono}methyl)phenyl naphthalene‐2‐sulfonate], for which the IC50 in test [1] amounted to 171 ± 10.4 nM; in test [2] it was 253 ± 10.5 nM; in test [3] it was 39.4 ± 2.87 nM; in test [4] it was 406 ± 8.24 nM. In addition, the Ki in test [2] turned out to be 235 ± 15 nM; in test [3], 32.2 ± 5.93 nM.

Turning to `CCN(CC)c1ccc(/C=N/NC(=S)Nc2cccc(Cl)c2)c(OS(=O)(=O)c2ccc3ccccc3c2)c1` [Compound 5e, (E)‐2‐({2‐[(3‐chlorophenyl)carbamothioyl]hydrazono}methyl)‐5‐(diethylamino)phenyl naphthalene‐2‐sulfonate], the IC50 was 117 ± 7.33 nM in test [1], 208 ± 7.53 nM in test [2], 31 ± 4.16 nM in test [3] and greater than 1000 nM in test [4]. In addition, the Ki was 195 ± 11.5 nM in test [2] and 25.4 ± 3.32 nM in test [3].

With `CCN(CC)c1ccc(/C=N/NC(=S)NCC(C)C)c(OS(=O)(=O)c2ccc3ccccc3c2)c1` [Compound 5f, (E)‐5‐(Diethylamino)‐2‐{[2‐(isobutylcarbamothioyl)hydrazono]methyl}phenyl naphthalene‐2‐sulfonate], the IC50 in test [1] was determined as 134 ± 8.04 nM; in test [2] it was 254 ± 6.31 nM; in test [3], 49.5 ± 5.21 nM; in test [4] it was 388 ± 5.37 nM. Also, the figures for the Ki in test [2] and in test [3] were 240 ± 18.6 nM and 38.8 ± 6.18 nM, respectively.

Regarding `CCN(CC)c1ccc(C=NNC(=S)NCCCSC)c(OS(=O)(=O)c2ccc3ccccc3c2)c1` [Compound 5g], the 50% inhibitory concentration (IC50) in test [1] is 188 ± 5.36 nM; in test [2] it was 287 ± 8.57 nM; in test [3], 80.4 ± 7.62 nM; in test [4] it was 399 ± 7.93 nM. For the same compound, the Ki in test [2] was determined as 258 ± 16.1 nM; in test [3], 72.4 ± 10.1 nM.

As to `CCN(CC)c1ccc(/C=N/NC(=S)Nc2ccccc2C(F)(F)F)c(OS(=O)(=O)c2ccc3ccccc3c2)c1` [Compound 5h, (E)‐5‐(Diethylamino)‐2‐[(2‐{[2‐(trifluoromethyl)phenyl]carbamothioyl}hydrazineylidene)methyl]phenyl naphthalene‐2‐sulfonate], the IC50 in test [1] was determined as 100 ± 4.57 nM; in test [2] it was 145 ± 8.96 nM; in test [3], 16.8 ± 1.35 nM; in test [4] it was 249 ± 9.1 nM. Further, the Ki in test [2] worked out at 136 ± 9.17 nM; in test [3], 14.6 ± 3.36 nM.

For `CCN(CC)c1ccc(/C=N/NC(=S)Nc2ccc(Cl)cc2)c(OS(=O)(=O)c2ccc3ccccc3c2)c1` [Compound 5i, (E)‐2‐({2‐[(4‐Chlorophenyl)carbamothioyl]hydrazono}methyl)‐5‐(diethylamino)phenyl naphthalene‐2‐sulfonate], the IC50 stood at 121 ± 3.15 nM in test [1], 200 ± 9.41 nM in test [2], 24.8 ± 2.41 nM in test [3] and 285 ± 4.02 nM in test [4]. For the same compound, the results for the Ki in test [2] and in test [3] were 190 ± 13.6 nM and 21 ± 4.12 nM, respectively.

As for `CCN(CC)c1ccc(/C=N/NC(=S)Nc2c(C)cccc2C)c(OS(=O)(=O)c2ccc3ccccc3c2)c1` [Compound 5j, (E)‐5‐(Diethylamino)‐2‐({2‐[(2,6‐dimethylphenyl)carbamothioyl]hydrazono}methyl)phenyl naphthalene‐2‐sulfonate], the IC50 in test [1] stood at 137 ± 6.21 nM; in test [2], 265 ± 7.9 nM; in test [3], 40.6 ± 2.77 nM; in test [4] it was 395 ± 8.35 nM. Further, the Ki in test [2] was 228 ± 12.4 nM; in test [3], 36.5 ± 5.23 nM.

As to `CCN(CC)c1ccc(/C=N/NC(=S)Nc2cccc(OC)c2)c(OS(=O)(=O)c2ccc3ccccc3c2)c1` [Compound 5k, (E)‐5‐(Diethylamino)‐2‐({2‐[(3‐methoxyphenyl)carbamothioyl]hydrazono}methyl)phenyl naphthalene‐2‐sulfonate], the half-inhibitory concentration (IC50) is 145 ± 8.03 nM in test [1], 253 ± 9.15 nM in test [2], 116 ± 8.42 nM in test [3] and greater than 1000 nM in test [4]. Further, the values for the Ki in test [2] and in test [3] were 205 ± 10.2 nM and 95.8 ± 9.54 nM, respectively.

In the case of `CCN(CC)c1ccc(/C=N/NC(=S)Nc2ccc(F)cc2)c(OS(=O)(=O)c2ccc3ccccc3c2)c1` [Compound 5l, (E)‐5‐(Diethylamino)‐2‐({2‐[(4‐fluorophenyl)carbamothioyl]hydrazono}methyl)phenyl naphthalene‐2‐sulfonate], the half-maximal inhibitory concentration (IC50) came out at 112 ± 2.78 nM in test [1], 200 ± 6.88 nM in test [2], 29.5 ± 2.68 nM in test [3] and 277 ± 6.33 nM in test [4]. In addition, the figures for the Ki in test [2] and in test [3] were 182 ± 9.05 nM and 27.4 ± 3.45 nM, respectively.
